Laboratory results published in patent US20110003711A1 (CHROMOCELL CORPORATION, priority 2008, published 2011).
Where a name gives a salt, the structure may show the parent alone.

The compounds below were run against T1, GABAA receptor α1β3γ2s (α1) (Homo sapiens, UniProt P14867+P18507+P28472) (assay: Membrane potential assay, CHO cell line expressing GABAA α1β3γ2s). Settings: not given.
T1 construct: Human GABAA receptor alpha 1 subunit amino acid; Human GABAA receptor beta 3 variant 1 subunit amino acid; Human GABAA receptor gamma 2 variant 1 (short) subunit amino acid; expressed in transfected cells
Assay type: cell-based
Description: (§1) As will be appreciated by those of skill in the art, any reagent that is suitable for use with a chosen host cell may be used to introduce a nucleic acid, e.g. plasmid, oligonucleotide, labeled oligonucleotide, into a host cell with proper optimization. Examples of reagents that may be used to introduce nucleic acids into host cells include but are not limited to Lipofectamine, Lipofectamine 2000, Oligofectamine, TFX reagents, Fugene 6, DOTAP/DOPE, Metafectine, or Fecturin.
(§2) Cells were plated 24 hours prior to assay at 10-25,000 cells per well in 384 well plates in growth media (Ham's F-12 media plus FBS and glutamine). […] Incubation was for 1 hour, followed by plate loading onto the high throughput fluorescent plate reader (Hamamastu FDSS). […] The plates were read for 90 seconds.
(§3) Interaction of cell lines with test compounds was evaluated by measuring the membrane potential of GABAA, in response to test compounds using the following protocol.

T1 sequence (P14867 28-456): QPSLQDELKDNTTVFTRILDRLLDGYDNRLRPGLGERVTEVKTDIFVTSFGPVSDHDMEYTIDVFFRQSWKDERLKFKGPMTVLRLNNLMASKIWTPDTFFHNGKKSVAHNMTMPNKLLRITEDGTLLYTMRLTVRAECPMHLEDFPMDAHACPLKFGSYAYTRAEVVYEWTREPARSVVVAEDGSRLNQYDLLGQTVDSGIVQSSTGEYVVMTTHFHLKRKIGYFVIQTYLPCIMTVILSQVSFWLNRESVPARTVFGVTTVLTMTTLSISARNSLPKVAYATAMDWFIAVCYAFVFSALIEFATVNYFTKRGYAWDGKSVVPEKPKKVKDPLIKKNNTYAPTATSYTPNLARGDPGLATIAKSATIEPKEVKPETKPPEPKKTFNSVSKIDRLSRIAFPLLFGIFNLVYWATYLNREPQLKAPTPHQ
T1 sequence (P28472 26-473): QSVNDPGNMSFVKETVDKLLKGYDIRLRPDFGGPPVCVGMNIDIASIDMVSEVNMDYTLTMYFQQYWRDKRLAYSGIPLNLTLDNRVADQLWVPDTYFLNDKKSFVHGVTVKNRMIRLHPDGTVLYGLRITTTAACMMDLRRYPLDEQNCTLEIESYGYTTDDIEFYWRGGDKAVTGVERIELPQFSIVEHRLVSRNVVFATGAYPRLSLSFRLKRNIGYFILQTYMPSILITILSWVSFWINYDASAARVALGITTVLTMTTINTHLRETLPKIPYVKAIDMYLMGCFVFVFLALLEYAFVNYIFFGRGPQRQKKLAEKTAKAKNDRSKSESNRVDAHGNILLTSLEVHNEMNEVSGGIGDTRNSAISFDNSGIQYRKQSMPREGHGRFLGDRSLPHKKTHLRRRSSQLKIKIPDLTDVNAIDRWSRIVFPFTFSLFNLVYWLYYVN
T1 sequence (P18507 40-467 isoform P18507-1 limits assumed): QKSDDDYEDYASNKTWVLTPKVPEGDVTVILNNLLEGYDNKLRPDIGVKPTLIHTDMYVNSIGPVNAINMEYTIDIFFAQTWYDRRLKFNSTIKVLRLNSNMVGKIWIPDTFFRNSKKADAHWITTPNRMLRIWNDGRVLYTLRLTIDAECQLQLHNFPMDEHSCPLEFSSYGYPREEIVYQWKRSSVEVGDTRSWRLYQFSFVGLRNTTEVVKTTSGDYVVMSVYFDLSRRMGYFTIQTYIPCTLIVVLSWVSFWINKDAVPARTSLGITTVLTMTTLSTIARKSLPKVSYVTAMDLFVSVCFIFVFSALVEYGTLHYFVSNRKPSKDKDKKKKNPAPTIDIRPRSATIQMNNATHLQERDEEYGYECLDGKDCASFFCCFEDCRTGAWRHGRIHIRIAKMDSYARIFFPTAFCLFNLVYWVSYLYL

Compound	EC50 [nM]
NCc1cc(=O)[nH]o1 [Muscimol]	4000
C[C@]12CC[C@@H](O)C[C@@H]1CC[C@@H]1[C@@H]2CC[C@]2(C)C(=O)CC[C@@H]12 [Androsterone]	1480
CC(C)c1cccc(C(C)C)c1O [Propofol]	33400
CN1C(=O)CCS(=O)(=O)C1c1ccc(Cl)cc1 (stereo not shown) [Chlormezanone]	1.74

Same assay, conditions: membrane potential assay, CHO α1β3γ2s cell line; read-out: EC50 Values α1

Compound	EC50 [nM]
C[C@]12CC[C@@H](O)C[C@@H]1CC[C@@H]1[C@@H]2CC[C@]2(C)[C@@H](C(=O)CO)CC[C@@H]12 [3-alpha, 21-dihydroxy-5-alpha-pregnan-20-one]	382
Ivermectin	4260
COc1cc(/C=C(\C#N)C(=O)c2ccc(O)c(O)c2)cc(I)c1O [I-OMe Tyrphostin 538]	3500
O=C(O)C1=CCNCC1 [Isoguvacine hydrochloride]	3570
CCOC(=O)c1cnc2c(cnn2CC)c1NN=C(C)C [Etazolate]	2540
CCCCNc1c(C(=O)OCC)c(C)nc2c1cnn2CC [Tracazolate]	10600
CC(C)(C)c1cc(C=C(C#N)C#N)cc(C(C)(C)C)c1O [Tyrphostin A9]	1800
CC(=O)[C@H]1CC[C@H]2[C@@H]3CC[C@H]4C[C@H](O)CC[C@]4(C)[C@H]3CC[C@]12C [5-alpha-Pregnan-3alpha-ol-20-one]	692
O=S(=O)(O)C1CCNCC1 [Piperidine-4-sulphonic acid]	13000

These compounds were tested against T2, GABAA receptor α5β3γ2s (α5) (Homo sapiens, UniProt P18507+P28472+P31644) (assay: Membrane potential assay, CHO cell line expressing GABAA α5β3γ2s). Settings: not given.
T2 construct: Human GABAA receptor alpha 5 subunit amino acid; Human GABAA receptor beta 3 variant 1 subunit amino acid; Human GABAA receptor gamma 2 variant 1 (short) subunit amino acid; expressed in transfected cells
Assay type: cell-based
Description: as §1, §2, §3

T2 sequence (P31644 32-462): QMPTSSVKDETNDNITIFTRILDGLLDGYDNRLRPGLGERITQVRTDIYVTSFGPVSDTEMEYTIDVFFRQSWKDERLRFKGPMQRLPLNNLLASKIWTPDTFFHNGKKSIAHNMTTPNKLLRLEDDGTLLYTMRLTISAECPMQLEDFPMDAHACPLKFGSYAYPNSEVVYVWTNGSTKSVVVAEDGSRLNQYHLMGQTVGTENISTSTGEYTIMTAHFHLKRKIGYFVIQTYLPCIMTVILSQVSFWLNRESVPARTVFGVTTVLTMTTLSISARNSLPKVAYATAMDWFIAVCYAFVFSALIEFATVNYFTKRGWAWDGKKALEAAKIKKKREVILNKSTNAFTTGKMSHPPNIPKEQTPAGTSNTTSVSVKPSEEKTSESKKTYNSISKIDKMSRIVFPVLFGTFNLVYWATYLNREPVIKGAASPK
T2 sequence (P28472 26-473): as the sequence (P28472 26-473) above
T2 sequence (P18507 40-467 isoform P18507-1 limits assumed): as the sequence (P18507 40-467 isoform P18507-1 limits assumed) above

Compound	EC50 [nM]
NCc1cc(=O)[nH]o1 [Muscimol]	80
C[C@]12CC[C@@H](O)C[C@@H]1CC[C@@H]1[C@@H]2CC[C@]2(C)C(=O)CC[C@@H]12 [Androsterone]	337
CC(C)c1cccc(C(C)C)c1O [Propofol]	2000
CN1C(=O)CCS(=O)(=O)C1c1ccc(Cl)cc1 (stereo not shown) [Chlormezanone]	14.1
CC(=O)[C@H]1CC[C@H]2[C@@H]3CC[C@H]4C[C@H](O)CC[C@]4(C)[C@H]3CC[C@]12C [5-alpha-Pregnan-3alpha-ol-20-one]	33.6

Same assay, conditions: membrane potential assay, CHO α5β3γ2s cell line

Compound	EC50 Values α5 (result in words)
COc1cc(/C=C(\C#N)C(=O)c2ccc(O)c(O)c2)cc(I)c1O [I-OMe Tyrphostin 538]	α5 Not active

Same assay, conditions: membrane potential assay, CHO α5β3γ2s cell line; read-out: EC50 Values α5

Compound	EC50 [nM]
C[C@]12CC[C@@H](O)C[C@@H]1CC[C@@H]1[C@@H]2CC[C@]2(C)[C@@H](C(=O)CO)CC[C@@H]12 [3-alpha, 21-dihydroxy-5-alpha-pregnan-20-one]	17.3
O=C(Nc1ccc([N+](=O)[O-])cc1Cl)c1cc(Cl)ccc1O [Niclosamide]	690
Ivermectin	687
OCCN(CCO)c1nc(N2CCCCC2)c2nc(N(CCO)CCO)nc(N3CCCCC3)c2n1 [Dipyridamole]	1370
O=C(O)C1=CCNCC1 [Isoguvacine hydrochloride]	1130
CCOC(=O)c1cnc2c(cnn2CC)c1NN=C(C)C [Etazolate]	281
CCCCNc1c(C(=O)OCC)c(C)nc2c1cnn2CC [Tracazolate]	762
CC(C)(C)c1cc(C=C(C#N)C#N)cc(C(C)(C)C)c1O [Tyrphostin A9]	54000
O=S(=O)(O)C1CCNCC1 [Piperidine-4-sulphonic acid]	14200

These compounds were tested against T3, GABAA receptor α3β3γ2s (α3) (Homo sapiens, UniProt P18507+P28472+P34903) (assay: Membrane potential assay, CHO cell line expressing GABAA α3β3γ2s). Settings: not given.
T3 construct: Human GABAA receptor alpha 3 subunit amino acid; Human GABAA receptor beta 3 variant 1 subunit amino acid; Human GABAA receptor gamma 2 variant 1 (short) subunit amino acid; expressed in transfected cells
Assay type: cell-based
Description: as §1, §2, §3

T3 sequence (P34903 29-492): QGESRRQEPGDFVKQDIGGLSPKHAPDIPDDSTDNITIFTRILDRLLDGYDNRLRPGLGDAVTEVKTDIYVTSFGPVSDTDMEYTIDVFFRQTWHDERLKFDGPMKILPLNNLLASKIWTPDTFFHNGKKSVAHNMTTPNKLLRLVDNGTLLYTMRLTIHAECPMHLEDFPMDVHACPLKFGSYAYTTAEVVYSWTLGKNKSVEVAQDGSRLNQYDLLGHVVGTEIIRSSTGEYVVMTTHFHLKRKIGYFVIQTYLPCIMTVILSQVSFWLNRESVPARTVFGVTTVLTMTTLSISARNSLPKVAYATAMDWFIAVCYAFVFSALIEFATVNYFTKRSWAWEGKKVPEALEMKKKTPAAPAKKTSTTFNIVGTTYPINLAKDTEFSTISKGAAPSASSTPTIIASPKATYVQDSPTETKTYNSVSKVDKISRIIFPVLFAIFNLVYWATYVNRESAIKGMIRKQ
T3 sequence (P28472 26-473): as the sequence (P28472 26-473) above
T3 sequence (P18507 40-467 isoform P18507-1 limits assumed): as the sequence (P18507 40-467 isoform P18507-1 limits assumed) above

Compound	EC50 [nM]
NCc1cc(=O)[nH]o1 [Muscimol]	367
C[C@]12CC[C@@H](O)C[C@@H]1CC[C@@H]1[C@@H]2CC[C@]2(C)C(=O)CC[C@@H]12 [Androsterone]	1120
CC(C)c1cccc(C(C)C)c1O [Propofol]	12900
CN1C(=O)CCS(=O)(=O)C1c1ccc(Cl)cc1 (stereo not shown) [Chlormezanone]	7

Same assay, conditions: membrane potential assay, CHO α3β3γ2s cell line; read-out: EC50 Values α3

Compound	EC50 [nM]
C[C@]12CC[C@@H](O)C[C@@H]1CC[C@@H]1[C@@H]2CC[C@]2(C)[C@@H](C(=O)CO)CC[C@@H]12 [3-alpha, 21-dihydroxy-5-alpha-pregnan-20-one]	80.2
O=C(Nc1ccc([N+](=O)[O-])cc1Cl)c1cc(Cl)ccc1O [Niclosamide]	550
Ivermectin	798
OCCN(CCO)c1nc(N2CCCCC2)c2nc(N(CCO)CCO)nc(N3CCCCC3)c2n1 [Dipyridamole]	3690
COc1cc(/C=C(\C#N)C(=O)c2ccc(O)c(O)c2)cc(I)c1O [I-OMe Tyrphostin 538]	2200
O=C(O)C1=CCNCC1 [Isoguvacine hydrochloride]	6780
CCOC(=O)c1cnc2c(cnn2CC)c1NN=C(C)C [Etazolate]	569
CCCCNc1c(C(=O)OCC)c(C)nc2c1cnn2CC [Tracazolate]	4300
CC(C)(C)c1cc(C=C(C#N)C#N)cc(C(C)(C)C)c1O [Tyrphostin A9]	5000
CC(=O)[C@H]1CC[C@H]2[C@@H]3CC[C@H]4C[C@H](O)CC[C@]4(C)[C@H]3CC[C@]12C [5-alpha-Pregnan-3alpha-ol-20-one]	80
O=S(=O)(O)C1CCNCC1 [Piperidine-4-sulphonic acid]	8330

What follows are compounds tested on GABAA-meYFP-CHO cells (α1β3γ2s, α2β3γ2s, α3β3γ2s, α5β3γ2s) (assay: In-cell readout assay using halide-sensitive meYFP). Settings: increasing concentrations of GABA ligand.
Assay type: cell-based, human
Description: The response of GABAA (subunit combinations of α1β3γ2s (A1), α2β3γ2s (A2), α3β3γ2s (A3) and α5β3γ2s (A5)) expressing CHO cells of the invention to test compounds was evaluated using the following protocol for an in-cell readout assay.
Cells were plated 24 hours prior to assay at 10-25,000 cells per well in 384 well plates in growth media (Ham's F-12 media plus FBS and glutamine). […] The assay plates were then loaded on the FDSS (Hamamatsu Corporation). […] The plates were read for 90 seconds.

Compound	Quench of meYFP signal
NCCCC(=O)O [GABA, Gamma-aminobutyric acid]	increasing quench of meYFP signal

Each compound was assayed against T4, GABAA receptor α2β3γ2s (α2) (Homo sapiens, UniProt P18507+P28472+P47869) (assay: Membrane potential assay, CHO cell line expressing GABAA α2β3γ2s). Settings: not given.
T4 construct: Human GABAA receptor alpha 2 subunit amino acid; Human GABAA receptor beta 3 variant 1 subunit amino acid; Human GABAA receptor gamma 2 variant 1 (short) subunit amino acid; expressed in transfected cells
Assay type: cell-based
Description: as §1, §2, §3

T4 sequence (P47869 29-451 A343T): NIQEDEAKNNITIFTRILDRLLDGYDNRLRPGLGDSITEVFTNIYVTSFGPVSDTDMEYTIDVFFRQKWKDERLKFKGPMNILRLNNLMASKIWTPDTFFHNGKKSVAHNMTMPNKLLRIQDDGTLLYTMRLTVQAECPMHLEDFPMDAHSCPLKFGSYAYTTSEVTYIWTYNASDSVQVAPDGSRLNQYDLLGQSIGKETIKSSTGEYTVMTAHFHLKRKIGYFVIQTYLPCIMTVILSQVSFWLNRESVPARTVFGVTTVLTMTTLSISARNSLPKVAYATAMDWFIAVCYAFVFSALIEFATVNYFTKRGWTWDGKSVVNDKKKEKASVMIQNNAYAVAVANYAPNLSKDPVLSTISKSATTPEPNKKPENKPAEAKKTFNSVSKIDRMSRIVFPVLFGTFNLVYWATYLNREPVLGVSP
T4 sequence (P28472 26-473, change not shown): as the sequence (P28472 26-473) above
T4 sequence (P18507 40-467 isoform P18507-1, change not shown): as the sequence (P18507 40-467 isoform P18507-1 limits assumed) above

Compound	EC50 [nM]
NCc1cc(=O)[nH]o1 [Muscimol]	675
C[C@]12CC[C@@H](O)C[C@@H]1CC[C@@H]1[C@@H]2CC[C@]2(C)C(=O)CC[C@@H]12 [Androsterone]	1520
CC(C)c1cccc(C(C)C)c1O [Propofol]	42800
CN1C(=O)CCS(=O)(=O)C1c1ccc(Cl)cc1 (stereo not shown) [Chlormezanone]	5.42
CC(=O)[C@H]1CC[C@H]2[C@@H]3CC[C@H]4C[C@H](O)CC[C@]4(C)[C@H]3CC[C@]12C [5-alpha-Pregnan-3alpha-ol-20-one]	140

The compounds below were run against T5, GABAA receptor α2β3γ2s (α2) (Homo sapiens, UniProt P18507+P28472+P47869, A343T) in the same assay as above. Settings: membrane potential assay, CHO α2β3γ2s cell line.
T5 construct: Human GABAA receptor alpha 2 subunit amino acid; Human GABAA receptor beta 3 variant 1 subunit amino acid; Human GABAA receptor gamma 2 variant 1 (short) subunit amino acid; expressed in transfected cells
Assay type: cell-based
Description: as §1, §2, §3

T5 sequence (P47869 29-451 A343T): as the sequence (P47869 29-451 A343T) above
T5 sequence (P28472 26-473, stated change not applied): as the sequence (P28472 26-473) above
T5 sequence (P18507 40-467 isoform P18507-1, stated change not applied): as the sequence (P18507 40-467 isoform P18507-1 limits assumed) above

Compound	EC50 [nM]
C[C@]12CC[C@@H](O)C[C@@H]1CC[C@@H]1[C@@H]2CC[C@]2(C)[C@@H](C(=O)CO)CC[C@@H]12 [3-alpha, 21-dihydroxy-5-alpha-pregnan-20-one]	123
Ivermectin	767
OCCN(CCO)c1nc(N2CCCCC2)c2nc(N(CCO)CCO)nc(N3CCCCC3)c2n1 [Dipyridamole]	3680
COc1cc(/C=C(\C#N)C(=O)c2ccc(O)c(O)c2)cc(I)c1O [I-OMe Tyrphostin 538]	1500
O=C(O)C1=CCNCC1 [Isoguvacine hydrochloride]	3420
CCOC(=O)c1cnc2c(cnn2CC)c1NN=C(C)C [Etazolate]	790
CCCCNc1c(C(=O)OCC)c(C)nc2c1cnn2CC [Tracazolate]	8900
CC(C)(C)c1cc(C=C(C#N)C#N)cc(C(C)(C)C)c1O [Tyrphostin A9]	880
O=S(=O)(O)C1CCNCC1 [Piperidine-4-sulphonic acid]	20000
